Laboratory results: patent US20070149466A1, “Methods and related compositions for treating or preventing obesity, insulin resistance disorders, and mitochondrial-associated disorders” (priority 2005, published 2007)

Experiments:
[1] = system: HDAC; settings: cited from earlier work; for concentration at which HDAC is inhibited: literature statements, in vitro or in vivo for SAHA, SBHA, CBHA
[2] = system: Zucker diabetic fatty rats; test: Zucker diabetic rat model, 42 days oral dosing; type: in vivo; settings: for daily body weights / food intake: 200 mg/kg orally twice a day, 43 days, vs vehicle and other groups; for fasting serum glucose levels: day 8, 15, 22, 29, 36 and 43, 200 mg/kg orally twice a day
Description: Groups of 8 rats were used for each group (6 weeks old, 190±10 grams). […] Blood samples were collected from the retro-orbital sinus 35 minutes before glucose load (Fasting glucose) and 90 minutes post oral glucose load. Serum glucose levels were determined by means of a Hitachi Model 750 Automatic Analyzer.

[3] = system: male C57BL/6J mice; test: Diet induced obesity (DIO) mouse model: body weight, food intake, body fat content (dexa scanning); type: in vivo; settings: resveratrol 400 mg/kg/day co-administered with a high fat diet
Description: The mice undergo an extensive phenotypic and molecular analysis to define the regulatory pathways affected by Sirt-1 activation.
(§1) In this long-term study, 50 male C57BL6J mice (5 weeks of age) are analyzed during a period of 18 weeks.
During the entire study, body weight and food intake
are monitored twice weekly.
During week 1, body composition is analyzed, for all groups, by dual energy X-ray absorptiometry (dexascan).
During week 12, body weight composition is again analysed by dexascan for all groups.
Diet. The standard rodent chow diet is obtained from UAR and the high fat diet is obtained from Research Diet. Mice are fed, either with chow diet (16% protein, 3% fat, 5% fiber, 5% ash) or with high fat diet (26.2% protein, 26.3% carbohydrate, 34.9% fat). Resveratrol is mixed with either powdered chow diet or powdered high fat diet and pellets are reconstituted. Control groups receive pellets as provided by the company. Due to the consistency of the high fat diet, it is not necessary to add water to mix it with the resveratrol. […]
Determination of body fat content by Dexa scanning. […] Bone mineral density (BMD in g/cm^2) and body composition are determined by using the PIXIMUS software (version 1.4x, GE Medical Systems).
The bottom panels show comparisons of body fat content, as analyzed by dexa scanning, at […] of treatment for mice in the four dietary groups. […]

[4] = system: male C57BL/6J mice; test: Energy expenditure by indirect calorimetry (oxygen consumption) in DIO mice; type: in vivo; settings: 400 mg/kg/day co-administrated with a high fat diet
Description: Nocturnal energy expenditure of groups 1, 3 and 5 (chow diet, high fat diet and high fat diet 400 mg) is measured by indirect calorimetry. Energy expenditure. Energy expenditure is evaluated through indirect calorimetry by measuring oxygen consumption with the Oxymax apparatus (Columbus Instruments, Columbus, Ohio) during 12 h. This system consists of an open circuit with air coming in and out of plastic cages (one mouse per cage). Animals are allowed free access to food and water. A very precise CO2 and O2 sensor measures the difference in O2 and CO2 concentrations in both air volumes, which gives the amount of oxygen consumed in a period of time given that the air flow of air coming in the cage is constant. The data coming out of the apparatus are processed in a connected computer, analyzed, and shown in an exportable Excel file. The values are expressed as ml.kg^−1.h^−1, which is commonly known as the VO2.

[5] = system: male C57BL/6J mice; test: Circadian (spontaneous locomotor) activity in DIO mice; type: in vivo; settings: 400 mg/kg/day, high fat diet
Description: During week 13, circadian activity of groups 3, 4 and 5 (high fat diet fed mice) is studied during a period of […]. A circadian activity measurement is performed on groups […]. Spontaneous locomotor activity is measured using individual boxes, each composed with a sliding floor, a detachable cage, and equipped with infra-red captors allowing measurement of ambulatory locomotor activity and rears. Boxes are linked to a computer using an electronic interface (Imetronic, Pessac, France). Mice are tested for 32 h in order to measure habituation to the apparatus as well as nocturnal and diurnal activities. The quantity of water consumed is measured during the test period using an automated lickometer.

[6] = system: high fat diet fed C57BL/6J mice; test: Intraperitoneal and oral glucose tolerance tests in DIO mice; type: in vivo; settings: 400 mg/kg/day, IPGTT and OGTT 2 g glucose/kg
Description: During week 10, glucose tolerance is determined by subjecting all the animals to an intraperitoneal glucose tolerance test (IPGTT). Animals are fasted for 12 h prior to this test. During week 16, glucose tolerance is analysed by performing an oral glucose tolerance test (OGTT) on a subset of animals (n=5) of groups 3, 4 and 5, and an intraperitoneal insulin sensitivity test (IPIST) on another subset of animals (n=5). During these experiments, blood is also collected to analyze insulin levels. Animals are fasted 12 h prior these tests. Intraperitoneal glucose tolerance test—Oral glucose tolerance test. IPGTT and OGTT are performed in mice which are fasted overnight (12 h). Mice are either injected intraperitoneally (IPGTT) or orally gavaged (OGTT) with a solution of 20% glucose in sterile saline (0.9% NaCl) at a dose of 2 g glucose/kg body weight. Blood is collected from the tail vein, for glucose and insulin monitoring, prior to and at 15, 30, 45, 75, 90, 120, 150, 180 min after administration of the glucose solution. The incremental area of the glucose curve is calculated as a measure of insulin sensitivity, whereas the corresponding insulin levels indicate insulin secretory reserves.

[7] = system: male C57BL/6 mice; test: Cold test (body temperature at 4° C.) in DIO mice; type: in vivo; settings: 400 mg/kg/day coadministered with a high fat diet, p<0.05
Description: During week 18, a cold test is performed on all animals by measuring body temperature of animals exposed to 4° C.

[8] = Tolerability of resveratrol as a food additive; type: in vivo
Description: as §1

[9] = system: mice; test: Serum biochemical analysis in DIO mice; type: in vivo; settings: 16 weeks, high fat plus 400 mg/kg/day
Description: Diet induced obesity was established in mice as described above in Example 1.
The values shown are based on an average of measurements from 10 animals for each dietary group. Levels of total cholesterol, HDL-cholestrol, LDL-cholesterol, triglycerides, free fatty acids, aspartate aminotransferase […], alanine aminotransferase (ALAT), and alkaline […] (ALP) were determined using standard procedures. ASAT, ALP and ALAT were measured by kinetic UV and colour tests using methods based on the recommendations of the ‘International Federation for Clinical Chemistry’ (IFCC) on an Olympus AU-400 automated laboratory work station. AST was quantified using the OSR6109 reagent system which is based on the activity of AST that catalyzes the transamination of aspartate and 2-oxoglutarate to L-glutamate and oxalacetate. […] The decrease in absorbance due to the consumption of NADH is measured at […] and is proportional to the AST activity in the sample. ALT was quantified using the OSR6107 reagent system which is based on the activity of ALT that transfers the amino group from alanine to 2-oxoglutarate to form pyruvate and glutamate. […] As with the AST measurement, consumption of NADH is measured at […] and is proportional to the amount of ALT activity in the sample. ALP is measured by determining the rate of conversion of p-nitro-phenyl phosphate to p-nitrophenol (pNP). […]

[10] = system: mice; test: Hematoxylin and eosin staining of tissue sections of DIO mice; type: in vivo; settings: 16 weeks, high fat plus 400 mg/kg/day vs control and high fat diets
Description: After collection, tissues were fixed in 4% paraformaldehyde, processed and embedded in paraffin prior to sectioning (10 microns) and staining. Tissue processing, paraffin embedding, tissue sectioning and hematoxylin and eosin staining of histological sections were carried out using standard procedures and commercially available materials (see e.g., McManus J. F. A. and Mowry, R. W., Staining Methods. Histologic and Histochemcial, Harper and Row, New York 1960; Luna L. G., Hitopathological Methods and Color Atlas of Special Stains and Tissue Artifacts, Johnson Printers, Downers Grove, Ill. 1992; Gabe M., Techniques histologiques. Masson, Paris 1968; and world wide web at statlab.com).

[11] = system: mice; test: Succinate dehydrogenase staining of brown adipose tissue and muscle of DIO mice; type: in vivo; settings: 16 weeks, HF+R400 vs HF diet
Description: Succinate dehydrogenase is a marker of mitochondrial activity and produces a dark stain in the photos. Tissues were collected and immediately frozen in methylbutane, then kept at −80° C. prior to sectioning and staining. Succinate Dehydrogenase staining was carried out using standard procedures and commercially available reagents (see e.g., Reichmann H and Wildenauer D, Histochemistry, 96: 251-3 (1991)).

[12] = system: mice; test: Transmission electron microscopy of gastrocnemius muscle and brown adipose tissue of DIO mice; type: in vivo; settings: 16 weeks
Description: Transmission electron microscopy was carried out using standard techniques as described below. The mitochondria can be seen as the darker oblong Z lines crossing the I lines.
Transmission electron microscopy was carried out using standard techniques as described below. Fat droplets may be observed at either magnification as white or light gray droplets and mitochondria can be observed at the higher magnification as roundish striated structures.
Transmission Electronic Microscopy/Preparation of Samples: The biopsies of gastrocnemius muscle and brown adipose tissue were cut in pieces of 1 mm and fixed immediately after collection in Kamovsky fixative (glutaraldehyde in cacodylate buffer) and kept at 4° C. without time limitation. The second step is the post-fixation with 1% osmium tetraoxide in 0.1M cacodylate buffer for 1 h at 4° C. Tissues were then dehydrated through successive baths of graded alcohol followed by a propylene oxide bath, and then a treatment with a propylene oxide and resine mix before to be embedded in a pure epoxy resine (araldite, Epon 812) which becomes solid after 48 h at 60° C. Semithin sections were cut at 2 μm and stained with toluidine blue, and histologically analysed by light microscopy. Ultrathin sections were cut at 70 nm and contrasted with uranyl acetate and lead citrate, and examined with a Philips 208 electron microscope.

[13] = system: PGC1 alpha; test: Immunoblot of PGC1 alpha acetylation in gastrocnemius muscle nuclear extracts; type: in vivo, mice; settings: high fat diet plus 400 mg/kg resveratrol vs high fat diet, 15 weeks
Text: Following immunoprecipitation with a PGC 1 alpha antibody (Santa Cruz Biotechnology, cat #SC-13067), secondary western blots were probed with either a acetylated lysine specific monoclonal (Cell Signaling Technology, Cat #9441; top left panel) or a PGC1alpha antibody (Santa Cruz Biotechnology, cat #SC-13067; lower left panel). Exposures were scanned and the acetylation status of PGC1alpha compared to total PGC1alpha of animals on either the HF or HF+[…] is shown in the right hand panel.

[14] = high fat diet plus 400 mg/kg/day resveratrol

In the case of `O=C(/C=C/c1cccc(C(=O)NO)c1)NO` [CBHA, m-carboxy-cinnamic acid bishydroxamic acid], the “concentration at which HDAC is inhibited” value [1] is listed as “micromolar concentration or lower”.

In the case of `C/C=C1\NC(=O)[C@H]2CSSCC/C=C/[C@H](CC(=O)N[C@H](C(C)C)C(=O)N2)OC(=O)[C@H](C(C)C)NC1=O` [Depsipeptide], the “concentration at which HDAC is inhibited” value [1] is given as “micromolar concentrations”.

With `CN(C)C(=N)N=C(N)N` [metformin, reference compound] the daily body weights [2] was “no statistical difference”, the food intake [2] was “no statistical difference” and the “fasting serum glucose levels” value [2] was “no difference”.

With `Oc1ccc(/C=C/c2cc(O)cc(O)c2)cc1` [resveratrol, 3,5,4′-Trihydroxy-trans-stilbene] the diet-induced obesity [3] was “prevents diet-induced obesity”, the energy expenditure [4] was “increases energy expenditure” and the circadian locomotor activity [5] was “significantly diminishes the circadian locomotor activity”. For the same molecule, the glucose tolerance [6] was “increases glucose tolerance”, the “adaptive thermogenesis (body temperature during 6 h cold test)” value [7] was “enhances adaptive thermogenesis” and the food aversion [8] was “does not cause food aversion”. The tolerability [8] was “well tolerated”, the daily body weights [2] was “no statistical difference” and the food intake [2] was “no statistical difference”. For the same molecule, the “fasting serum glucose levels” value [2] was “no difference”, the “serum biochemical markers (total, HDL and LDL cholesterol, triglycerides, free fatty acids, ASAT, ALAT, ALP)” value [9] was “fell within the normal range” and the “histological changes (liver, epididymal WAT, BAT, gastrocnemius muscle; hematoxylin and eosin)” value [10] was “few histological changes”. For the same molecule, the “succinate dehydrogenase staining (marker of mitochondrial activity), brown adipose tissue” value [11] was “significantly higher”, the “succinate dehydrogenase staining (marker of mitochondrial activity), gastrocnemius” value [11] was “significantly higher” and the “succinate dehydrogenase staining, soleus” value [11] was “little change”. For the same molecule, the “mitochondria in gastrocnemius muscle (non-oxidative fibers), transmission electron microscopy” value ([12]; HF+R400 vs control or high fat diets) was “more mitochondria”, the “fat droplets in brown adipose tissue, transmission electron microscopy” value [12, 14] was “smaller fat droplets” and the “mitochondria in brown adipose tissue, transmission electron microscopy” value [12, 14] was “more mitochondria”. For the same molecule, the PGC1 alpha deacetylation [13] was “increases PGC1 alpha deacetylation”.

For depudecin, the “concentration at which HDAC is inhibited” value [1] is given as “micromolar concentrations”.

In the case of trichostatin A [TSA], the “inhibition of mammalian HDAC” value ([1]; Yoshida et al. (1990)) is listed as “potent inhibitor”.
